Earlier results on one molecule are cited in patent publication US20040037880A1, “Extended release formulation of divalproex sodium” (priority 2002, published 2004).

Read-outs that look alike come from different tables or passages of the source.

With `CCCC(CCC)C(=O)O` [valproic acid], the elimination half-life reads like this: (adults) 6 to 17 h; (children) 4 to 14 h.
